In article PMC6572618, “Anti-Trypanosomal and Antimalarial Properties of Tetralone Derivatives and Structurally Related Benzocycloalkanones” (Medicina, 2019):
Like-named read-outs stand apart in the source and are kept apart here.

Key:
Assay type in all cases: cell-based
[1] = tested on: 427 Trypanosoma brucei brucei trypomastigotes; assay: In vitro anti-trypanosomal assay (resazurin); settings: 48 h; for viability at 20 µM / IC50: Trypanosoma brucei; for viability at 20 µM: read-out: % Viability at 20 µM (SD) T.b. brucei; for IC50: three-fold serial dilutions from 100 µM, read-out: IC50 (µM) T. b. brucei
Experimental: The activity of the compounds against 427 Trypanosoma brucei brucei trypomastigotes was determined as previously described. Briefly, parasites were incubated in 96-well plates with 20 µM or three-fold serial dilutions (100 µM starting concentration) of test compounds in Iscove’s modified Dulbecco’s medium (IMDM) (Lonza, Basel, Switzerland) supplemented with 10% fetal calf serum, HMI-9 supplement, hypoxanthine, and penicillin/streptomycin at 37 °C in a 5% CO2 incubator. After 48 h, 20 µL of resazurin reagent (0.135 mg/mL resazurin in phosphate-buffered saline) was added to each well and the fluorescence (Ex560/Em590) read after 2–4 h in a Spectramax M3 plate reader (Molecular Devices, San Jose, CA, USA). The fluorescence readings were used to calculate % parasite viability relative to the readings obtained from the wells containing untreated control parasite cultures. The IC50 values were determined by plotting % viability vs. log(compound) and performing a non-linear regression using a GraphPad Prism (v. 5.02) (San Diego, CA, USA).
(§1) Thirty-five tetralone derivatives (see Figure 2) and six related benzocycloalkanones (see Figure 3) were evaluated in vitro against T. b. brucei for antitrypanosomal activity through the resazurin assay protocol. The compounds were also evaluated against the chloroquine-sensitive strain (3D7) of P. falciparum for antimalarial activity using pLDH assay and against the HeLa cell line for cytotoxicity evaluation using the resazurin assay protocol.

[2] = In vitro cytotoxicity assay (resazurin); settings: human, 20 µM compound, 24 h, % cell viability relative to untreated control, read-out: % Viability at 20 µM (SD) HeLa Cell
Experimental: As previously described, HeLa cells (Cellonex, Johannesburg, South Africa) were seeded in 96-well plates at a density of 2 × 10^4 cells/well in Dulbecco’s modified Eagle’s medium (DMEM) (Lonza, Basel, Switzerland) supplemented with 10% fetal calf serum and antibiotics (penicillin/streptomycin/amphotericin B) and incubated overnight at 37 °C in a 5% CO2 incubator. Compounds were added to the cells at a final concentration of 20 µM, and incubation continued for 24 h. The cell viability in the wells was assessed by adding 20 µL of resazurin reagent (0.135 mg/mL resazurin in phosphate-buffered saline) and reading the fluorescence (Ex560/Em590) after an additional 2–4 h incubation. The fluorescence readings were converted to % cell viability relative to the average readings obtained from the untreated control wells.
as §1

[3] = tested on: chloroquine sensitive strain of P. falciparum (3D7); assay: In vitro antiplasmodial assay (parasite lactate dehydrogenase, pLDH); settings: Plasmodium falciparum, 3D7, 48 h, read-out: % Viability at 20 µM (SD) 3D7
Experimental: An antimalarial evaluation was performed against the chloroquine sensitive strain of P. falciparum (3D7) using the parasite lactate dehydrogenase (pLDH) assay as previously reported. Parasites were seeded at 2% parasitemia and 1% hematocrit in 96 well plates and were incubated with 20 µM of the test compounds for 48 h in culture medium consisting of Rosell Park Memorial Institute (RPMI 1640; Lonza, Basel, Switzerland) containing 25 mM 4-(2-hydroxyethyl)-1-piperazineethanesulfonic acid (HEPES), supplemented with 0.5% (w/v) Albumax II, 22 mM glucose, 0.65 mM hypoxanthine, 0.05mg/mL gentamicin, and 1% (v/v) human erythrocytes, at 37 °C under an atmosphere of 5% CO2, 5% O2, and 90% N2. The parasite lactate dehydrogenase activity in the wells was determined using the colorimetric assay method of Makler et al.. The absorbance readings were converted to % parasite viability relative to the wells containing untreated parasites.
as §1

[4] = 20 µM compound, % parasite viability relative to untreated control
[5] = 20 µM compound, 48 h, P. falciparum 3D7, % parasite viability relative to untreated parasites

Structure (SMILES) | viability at 20 µM [1, 4] [%] | viability at 24 h, 20 µM ([2]; HeLa cells) [%] | viability at 20 µM [3, 5] [%] | IC50 [1] [µM] | % Viability at 20 µM (SD) T.b. brucei ([1]; 20 µM compound, % parasite viability relative to untreated control, 20 µM) | viability at 24 h, 20 µM [2] [%] | viability at 20 µM [3] [%]
COc1ccc2c(c1)C(=O)/C(=C/C1CCCCC1)CC2 [Compound 26] | < 1 | 92 | 119 |  |  |  | 
COc1ccc2c(c1)C(=O)/C(=C/C1CCCC1)CC2 [Compound 27] | < 1 | 85 | 81 | 5.4 |  |  | 
COc1ccc2c(c1)C(=O)/C(=C/c1ccsc1)CC2 [Compound 35] | 22 | 122 | 86 | 2.6 |  |  | 
O=C1/C(=C/c2ccc(Cl)cc2)COc2ccccc21 [Compound 38] |  |  |  | 0.4 | 0.4 (0.2) % | 75 | 98
